According to PubChem BioAssay (NCI):
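At the GI50, growth is halved. TGI: concentration producing complete growth inhibition.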

Columns and labels:
Assay in all cases: growth of human tumour cells (NCI), 384-well format
[1] = test system: 786-0 renal
[2] = test system: SNB-75 CNS
[3] = test system: U251 glioblastoma
[4] = test system: OVCAR-4 ovarian
[5] = test system: SNB-19 CNS
[6] = test system: HOP-92 NSCLC
[7] = test system: SK-MEL-28 melanoma
[8] = test system: SN12C renal
[9] = test system: OVCAR-3 ovarian
[10] = test system: MCF7 breast
[11] = test system: A549 NSCLC
[12] = test system: SF-268 CNS
[13] = test system: NCI/ADR-RES ovarian

Which results are given for Cc1nc(NC(=O)N2CCC[C@H]2C(N)=O)sc1-c1ccnc(C(C)(C)C(F)(F)F)c1?
GI50 [1]: 17.4 µM; TGI [1]: 54.8 µM; GI50 [2]: 1.17 µM; TGI [2]: 8.53 µM; GI50 [3]: 10.3 µM; TGI [3]: 39.5 µM; GI50 [4]: 7.73 µM; TGI [4]: 40.7 µM; GI50 [5]: 28.6 µM; TGI [5]: > 100 µM; GI50 [6]: 3.09 µM; TGI [6]: 20.6 µM; GI50 [7]: 7.87 µM; TGI [7]: > 83 µM; GI50 [8]: 14.7 µM; TGI [8]: 80.1 µM; GI50 [9]: 6.07 µM; TGI [9]: 27.8 µM; GI50 [10]: 0.205 µM; TGI [10]: 17.8 µM; GI50 [11]: 6.07 µM; TGI [11]: 23.7 µM; GI50 [12]: 12.9 µM; TGI [12]: 61.2 µM; GI50 [13]: 16.5 µM; TGI [13]: 71.9 µM

For CC(=O)N1CC(F)(F)c2c(Sc3ncc(N4CCC5(CC4)COC[C@H]5N)nc3N)cccc21, which GI50 [1] is on record?
The GI50 was 10.7 µM.

And the TGI [1]?
The TGI was 23.5 µM.

What about the GI50 [2] of the same compound?
The GI50 was 5.83 µM.

And the TGI [2]?
The TGI was 29.1 µM.

What about the GI50 [3] of the same compound?
The GI50 was 12.7 µM.

What about the TGI [3] of the same compound?
The TGI was 26.6 µM.

And the GI50 [4]?
Its GI50 is 9.78 µM.

And the TGI [4]?
The TGI was 35.9 µM.

And the GI50 [5]?
Its GI50 is 13.6 µM.

What about the TGI [5] of the same compound?
Its TGI is 41.7 µM.

What about the GI50 [6] of the same compound?
Its GI50 is 2.17 µM.

What about the TGI [6] of the same compound?
The TGI was 14.2 µM.

And the GI50 [7]?
Its GI50 is 13.1 µM.

What about the TGI [7] of the same compound?
The TGI was 26.2 µM.

What about the GI50 [8] of the same compound?
The GI50 was 11.2 µM.

And the TGI [8]?
Its TGI is 50.9 µM.

And the GI50 [9]?
Its GI50 is 14.1 µM.

And the TGI [9]?
The TGI was 30.7 µM.

And the GI50 [10]?
Its GI50 is 0.0453 µM.

And the TGI [10]?
Its TGI is 11.4 µM.

What about the GI50 [11] of the same compound?
The GI50 was 14.1 µM.

What about the TGI [11] of the same compound?
The TGI was 35.2 µM.

What about the GI50 [12] of the same compound?
Its GI50 is 14.4 µM.

What about the TGI [12] of the same compound?
Its TGI is 48.7 µM.

What about the GI50 [13] of the same compound?
Its GI50 is 16.3 µM.

What about the TGI [13] of the same compound?
The TGI was 56.8 µM.
